Test results as given in PubChem BioAssay (NCI).
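48-hour exposure; five concentrations; linearly interpolated endpoints. TGI marks complete inhibition of growth.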

Experiments:
Assay in all cases: DTP human tumour cell line panel, 48 h
UO-31 renal = test system: UO-31 renal
UACC-62 melanoma = test system: UACC-62 melanoma
OVCAR-8 ovarian = test system: OVCAR-8 ovarian
NCI-H460 lung = test system: NCI-H460 lung
NCI-H522 lung = test system: NCI-H522 lung
CCRF-CEM leukemia = test system: CCRF-CEM leukemia
HOP-62 NSCLC = test system: HOP-62 NSCLC
HS 578T breast = test system: HS 578T breast
OVCAR-4 ovarian = test system: OVCAR-4 ovarian
NCI-H226 lung = test system: NCI-H226 lung
U251 CNS = test system: U251 CNS
SK-OV-3 ovarian = test system: SK-OV-3 ovarian
HCT-15 colon = test system: HCT-15 colon
SF-539 CNS = test system: SF-539 CNS
MALME-3M melanoma = test system: MALME-3M melanoma
M14 melanoma = test system: M14 melanoma
HCC-2998 colon = test system: HCC-2998 colon
PC-3 prostate = test system: PC-3 prostate
MOLT-4 leukemia = test system: MOLT-4 leukemia
UACC-257 melanoma = test system: UACC-257 melanoma
SNB-19 CNS = test system: SNB-19 CNS
MCF7 breast = test system: MCF7 breast
SNB-75 CNS = test system: SNB-75 CNS
SK-MEL-28 melanoma = test system: SK-MEL-28 melanoma
SW-620 colon = test system: SW-620 colon
MDA-MB-435 = test system: MDA-MB-435
786-0 renal = test system: 786-0 renal
A549 NSCLC = test system: A549 NSCLC
HL-60(TB) leukemia = test system: HL-60(TB) leukemia
TK-10 renal = test system: TK-10 renal
MDA-N = test system: MDA-N
EKVX NSCLC = test system: EKVX NSCLC
K-562 leukemia = test system: K-562 leukemia
KM12 colon = test system: KM12 colon
RXF 393 renal = test system: RXF 393 renal
SF-268 CNS = test system: SF-268 CNS
LOX IMVI melanoma = test system: LOX IMVI melanoma
NCI-H23 lung = test system: NCI-H23 lung
HOP-92 NSCLC = test system: HOP-92 NSCLC
HT29 colon = test system: HT29 colon
SN12C renal = test system: SN12C renal
NCI/ADR-RES ovarian = test system: NCI/ADR-RES ovarian
COLO 205 colon = test system: COLO 205 colon
CAKI-1 renal = test system: CAKI-1 renal
SR leukemia = test system: SR leukemia
OVCAR-3 ovarian = test system: OVCAR-3 ovarian
SK-MEL-2 melanoma = test system: SK-MEL-2 melanoma
MDA-MB-231 breast = test system: MDA-MB-231 breast
T-47D breast = test system: T-47D breast
IGROV1 ovarian = test system: IGROV1 ovarian
DU-145 prostate = test system: DU-145 prostate
RPMI-8226 leukemia = test system: RPMI-8226 leukemia
HCT-116 colon = test system: HCT-116 colon
OVCAR-5 ovarian = test system: OVCAR-5 ovarian
SF-295 CNS = test system: SF-295 CNS
BT-549 breast = test system: BT-549 breast
ACHN renal = test system: ACHN renal
SK-MEL-5 melanoma = test system: SK-MEL-5 melanoma

Structure (SMILES): CCCCC(=C=C1CCCCC1O)C1CCCN1C(=O)OC(C)(C)C (stereo not given)
- TGI (UO-31 renal): 35.8 µM
- TGI (UACC-62 melanoma): 23.4 µM
- TGI (OVCAR-8 ovarian): 34.6 µM
- TGI (NCI-H460 lung): 31 µM
- TGI (NCI-H522 lung): 32.8 µM
- TGI (CCRF-CEM leukemia): 35 µM
- TGI (HOP-62 NSCLC): 31.7 µM
- TGI (HS 578T breast): 41 µM
- TGI (OVCAR-4 ovarian): 27.4 µM
- TGI (NCI-H226 lung): 34.8 µM
- TGI (U251 CNS): 29.4 µM
- TGI (SK-OV-3 ovarian): 31.2 µM
- TGI (HCT-15 colon): 32.3 µM
- TGI (SF-539 CNS): 35.5 µM
- TGI (MALME-3M melanoma): 31.6 µM
- TGI (M14 melanoma): 30.9 µM
- TGI (HCC-2998 colon): 36.6 µM
- TGI (PC-3 prostate): 29.6 µM
- TGI (MOLT-4 leukemia): 33.5 µM
- TGI (UACC-257 melanoma): 29.4 µM
- TGI (SNB-19 CNS): 31.1 µM
- TGI (MCF7 breast): 31.6 µM
- TGI (SNB-75 CNS): 26.7 µM
- TGI (SK-MEL-28 melanoma): 29.6 µM
- TGI (SW-620 colon): 35.4 µM
- TGI (MDA-MB-435): 30.6 µM
- TGI (786-0 renal): 29.6 µM
- TGI (A549 NSCLC): 29.3 µM
- TGI (HL-60(TB) leukemia): 25.5 µM
- TGI (TK-10 renal): 29.8 µM
- TGI (MDA-N): 30 µM
- TGI (EKVX NSCLC): 28.4 µM
- TGI (K-562 leukemia): 34.1 µM
- TGI (KM12 colon): 31.5 µM
- TGI (RXF 393 renal): 27.1 µM
- TGI (SF-268 CNS): 32.7 µM
- TGI (LOX IMVI melanoma): 32.3 µM
- TGI (NCI-H23 lung): 32.4 µM
- TGI (HOP-92 NSCLC): 26 µM
- TGI (HT29 colon): 27.3 µM
- TGI (SN12C renal): 31.7 µM
- TGI (NCI/ADR-RES ovarian): 30.6 µM
- TGI (COLO 205 colon): 43.8 µM
- TGI (CAKI-1 renal): 24.4 µM
- TGI (SR leukemia): > 100 µM
- TGI (OVCAR-3 ovarian): 29.1 µM
- TGI (SK-MEL-2 melanoma): 30 µM
- TGI (MDA-MB-231 breast): 30 µM
- TGI (T-47D breast): 29.8 µM
- TGI (IGROV1 ovarian): 31.1 µM
- TGI (DU-145 prostate): 31.4 µM
- TGI (RPMI-8226 leukemia): 32.6 µM
- TGI (HCT-116 colon): 27.3 µM
- TGI (OVCAR-5 ovarian): 29.4 µM
- TGI (SF-295 CNS): 28 µM
- TGI (BT-549 breast): 35.4 µM
- TGI (ACHN renal): 29.2 µM
- TGI (SK-MEL-5 melanoma): 30.9 µM

Structure (SMILES): Clc1ncc(C(Cl)(Cl)Cl)nc1-c1ccccc1
- TGI (UO-31 renal): 3.34 µM
- TGI (UACC-62 melanoma): 7.27 µM
- TGI (OVCAR-8 ovarian): 7.16 µM
- TGI (NCI-H460 lung): 11.3 µM
- TGI (NCI-H522 lung): 6.72 µM
- TGI (CCRF-CEM leukemia): > 100 µM
- TGI (HOP-62 NSCLC): 6.08 µM
- TGI (HS 578T breast): 6.95 µM
- TGI (OVCAR-4 ovarian): 17 µM
- TGI (NCI-H226 lung): 39.4 µM
- TGI (U251 CNS): 3.3 µM
- TGI (SK-OV-3 ovarian): 24.3 µM
- TGI (HCT-15 colon): 3.42 µM
- TGI (SF-539 CNS): 5.05 µM
- TGI (MALME-3M melanoma): 19.1 µM
- TGI (M14 melanoma): 5.88 µM
- TGI (HCC-2998 colon): 2.9 µM
- TGI (PC-3 prostate): 3.38 µM
- TGI (MOLT-4 leukemia): 28.9 µM
- TGI (UACC-257 melanoma): 4.76 µM
- TGI (SNB-19 CNS): 3.19 µM
- TGI (MCF7 breast): 3.44 µM
- TGI (SNB-75 CNS): 6.24 µM
- TGI (SK-MEL-28 melanoma): 60.6 µM
- TGI (SW-620 colon): > 100 µM
- TGI (MDA-MB-435): 3.54 µM
- TGI (786-0 renal): 5.77 µM
- TGI (A549 NSCLC): 22.5 µM
- TGI (HL-60(TB) leukemia): 6.41 µM
- TGI (TK-10 renal): 5.39 µM
- TGI (MDA-N): 3.82 µM
- TGI (EKVX NSCLC): 6.02 µM
- TGI (K-562 leukemia): 12.4 µM
- TGI (KM12 colon): 3.43 µM
- TGI (RXF 393 renal): 3.3 µM
- TGI (SF-268 CNS): 5.09 µM
- TGI (LOX IMVI melanoma): 15.4 µM
- TGI (NCI-H23 lung): 6.07 µM
- TGI (HOP-92 NSCLC): 4.5 µM
- TGI (HT29 colon): 3.65 µM
- TGI (SN12C renal): 8.57 µM
- TGI (NCI/ADR-RES ovarian): 57.7 µM
- TGI (COLO 205 colon): 4.11 µM
- TGI (CAKI-1 renal): 5.46 µM
- TGI (SR leukemia): 10.9 µM
- TGI (OVCAR-3 ovarian): 3.1 µM
- TGI (SK-MEL-2 melanoma): 5.04 µM
- TGI (MDA-MB-231 breast): 3.86 µM
- TGI (T-47D breast): 4.1 µM
- TGI (IGROV1 ovarian): 8.05 µM
- TGI (DU-145 prostate): 2.96 µM
- TGI (HCT-116 colon): 3.52 µM
- TGI (OVCAR-5 ovarian): 30.9 µM
- TGI (SF-295 CNS): 13.5 µM
- TGI (BT-549 breast): 8.81 µM
- TGI (ACHN renal): 3.19 µM
- TGI (SK-MEL-5 melanoma): 26.4 µM
